Experimental data from US7932262B2 (Novartis AG, priority 2006, dated 2011).
pEC50, pIC50: −log10 of the molar value.

What was measured:
PC-3 cells = experiment: Cell Proliferation Assay (Cell Titer Glo), PC-3 cell line; type: cell-based; details: Homo sapiens, PC-3, Cell Proliferation Assay, PC3; read-out: CPEC50 PC3
Procedure, shortened: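 PC-3 cells, 1000 cells/well, left to adhere 3-5 h, then exposed for 3 days at 37° C to compounds as 1:3 serial dilutions from 500× DMSO stocks diluted in growth medium. Medium then replaced with fresh medium and viability read by Cell Titer Glo luminescence.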

PDK1 kinase = target: T1, PDK1 kinase (Homo sapiens, UniProt O15530); experiment: PDK1 Kinase Alpha Screen Assay; type: biochemical; details: PDK1 Kinase Alpha Screen Assay; read-out: PDK1 IC50
T1 sequence (O15530 1-556): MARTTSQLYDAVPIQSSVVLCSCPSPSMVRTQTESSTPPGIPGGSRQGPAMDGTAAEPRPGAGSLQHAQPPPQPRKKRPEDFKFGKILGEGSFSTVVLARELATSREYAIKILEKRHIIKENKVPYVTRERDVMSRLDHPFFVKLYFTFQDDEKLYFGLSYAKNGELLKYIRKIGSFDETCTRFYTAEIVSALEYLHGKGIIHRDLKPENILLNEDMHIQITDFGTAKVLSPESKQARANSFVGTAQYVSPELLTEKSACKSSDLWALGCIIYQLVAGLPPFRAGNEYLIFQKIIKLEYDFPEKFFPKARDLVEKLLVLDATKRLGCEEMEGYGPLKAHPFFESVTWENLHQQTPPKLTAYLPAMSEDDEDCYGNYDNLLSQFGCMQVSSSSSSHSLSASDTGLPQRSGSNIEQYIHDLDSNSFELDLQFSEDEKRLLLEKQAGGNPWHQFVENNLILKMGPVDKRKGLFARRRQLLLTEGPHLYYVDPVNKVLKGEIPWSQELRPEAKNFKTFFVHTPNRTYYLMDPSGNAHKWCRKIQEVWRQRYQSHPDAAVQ
Procedure, shortened: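 Compound in DMSO added to PDK1-4 peptide; PDK1/ATP mix starts reaction (final 50 nM peptide, 10 uM ATP). Runs 3-18 hours, stopped with 90 mM EDTA buffer. Antibody/bead mix added, developed overnight at room temperature, then AlphaScreen signal read.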

Compound	pEC50 (PC-3 cells)	pIC50 (PDK1 kinase)
CC(C)N1CCC(Oc2ccc3cnc(Nc4cccc(N5CCN(C)CC5)c4)nc3c2)CC1 [Compound 582, 7-(1-isopropylpiperidin-4-yloxy)-N-(3-(4-methylpiperazin-1-yl)phenyl)quinazolin-2-amine]	5.00 to 5.30	> 5.30
Cc1nc(Nc2ccc(S(N)(=O)=O)cc2)nc2cc(OCCC3CCNCC3)ccc12 [Compound 583]	5.00 to 5.30	4.60 to 5.00
c1ncc(-c2ccc(Nc3ncc4ccc(OC5CCNCC5)cc4n3)cc2)o1 [Compound 584, N-(4-(oxazol-5-yl)phenyl)-7-(piperidin-4-yloxy)qinazolin-2-amine]	> 5.30	> 5.30
O=C(c1ccc(Nc2ncc3ccc(OC4CCNCC4)cc3n2)cc1)N1CCOCC1 [Compound 585, morpholilno(4-(7-(piperidin-4-yloxy)quinazolin-2-ylamino)phenyl)methanone]	> 5.30	> 5.30
NS(=O)(=O)c1ccc(Nc2ncc3c(-c4cn[nH]c4)ccc(OC4CCNCC4)c3n2)cc1 [Compound 586, 4-(8-(piperidin-4-yloxy)-5-(1H-pyrazol-4-yl)quinazolin-2-ylamino)benzensulfonamide]	5.00 to 5.30	5.00 to 5.30
COc1cc(Nc2ncc3ccc(OC4CCNCC4)cc3n2)cc(C(F)(F)F)c1 [Compound 587, N-(3-methoxy-5-(trifluoromethyl)phenyl)-7-(piperidin-4-yloxy)quinazolin-2-amine]	> 5.30	> 5.30
NC(=O)c1cc(Nc2ncc3ccc(OC4CCNCC4)cc3n2)cc(C(F)(F)F)c1 [Compound 588, 3-(7-(piperidin-4-yloxy)quinazolin-2-ylamino)-5-(trifluoromethyl)benzamide]	> 5.30	> 5.30
Fc1ccc(Nc2ncc3ccc(OC4CCNCC4)cc3n2)cc1Br [Compound 589, N-(3-bromo-4-fluorophenyl)-7-(piperidin-4-yloxy)quinazolin-2-amine]	> 5.30	> 5.30
CC(C)NC(=O)c1ccc(Nc2ncc3ccc(OC4CCNCC4)cc3n2)cc1 [Compound 590, N-isopropyl-4-(7-(piperidin-4-yloxy)quinazolin-2-ylamino)benzamide]	> 5.30	> 5.30
Fc1ccc(Nc2ncc3ccc(OC4CCNCC4)cc3n2)cc1-c1cnoc1 [Compound 592, N-(4-fluoro-3-(isoxazol-4-yl)phenyl)-7-(piperidin-4-yloxy)quinazolin-2-amine]	5.00 to 5.30	> 5.30
Fc1cc(Nc2ncc3ccc(OC4CCNCC4)cc3n2)ccc1N1CCOCC1 [Compound 593, N-(3-fluoro-4-morpholinophenyl)-7-(piperidin-4-yloxy)quinazolin-2-amine]	> 5.30	> 5.30
Clc1cc(Nc2ncc3ccc(OC4CCNCC4)cc3n2)ccc1N1CCOCC1 [Compound 594, N-(3-chloro-4-morpholinophenyl)-7-(piperidin-4-yloxy)quinazolin-2-amine]	> 5.30	> 5.30
O=C(c1ccc(Nc2ncc3c(Cl)ccc(OC4CCNCC4)c3n2)cc1)N1CCOCC1 [Compound 595, (4-(5-chloro-8-(piperidin-4-yloxy)quinazolin-2-ylamino)phenyl)(morpholino)methanone]	5.00 to 5.30	> 5.30
Fc1cc(Nc2ncc3ccc(OC4CCNCC4)cc3n2)ccc1Br [Compound 596, N-(4-bromo-3-fluorophenyl)-7-(piperidin-4-yloxy)quinazolin-2-amine]	> 5.30	> 5.30
Fc1cc(Nc2ncc3c(Cl)ccc(OC4CCNCC4)c3n2)ccc1N1CCOCC1 [Compound 597, 5-chloro-N-(3-fluoro-4-morpholinophenyl)-8-(piperidin-4-yloxy)quinazolin-2-amine]	5.00 to 5.30	> 5.30

Now from value to compound:

pEC50 (PC-3 cells)	pIC50 (PDK1 kinase)	Compound
5.00 to 5.30	> 5.30	Cn1cc(-c2ccc(Nc3ncc4ccc(OC5CCNCC5)cc4n3)cc2F)cn1 [Compound 598, N-(3-fluoro-4-(1-methyl-1H-pyrazol-4-yl)phenyl)-7-(piperidin-4-yloxy)quinazolin-2-amine]
> 5.30	> 5.30	CC(C)NC(=O)c1ccc(Nc2ncc3c(Cl)ccc(OC4CCNCC4)c3n2)cc1 [Compound 599, 4-(5-chloro-8-(piperidin-4-yloxy)quinazolin-2-ylamino)-N-isopropylbenzamide]
> 5.30	> 5.30	Fc1cccc(Nc2ncc3c(Cl)ccc(OC4CCNCC4)c3n2)c1 [Compound 600, 5-chloro-N-(3-fluorophenyl)-8-(piperidin-4-yloxy)quinazolin-2-amine]
5.00 to 5.30	> 5.30	Clc1ccc(OC2CCNCC2)c2nc(Nc3cccc(N4CCOCC4)c3)ncc12 [Compound 601, 5-chloro-N-(3-morpholinophenyl)-8-(piperidin-4-yloxy)quinazolin-2-amine]
> 5.30	> 5.30	Clc1cc(Nc2ncc3c(Cl)ccc(OC4CCNCC4)c3n2)ccc1N1CCOCC1 [Compound 602]
> 5.30	> 5.30	CC(C)NS(=O)(=O)c1ccc(Nc2ncc3c(Cl)ccc(OC4CCNCC4)c3n2)cc1 [Compound 603, 4-(5-chloro-8-(piperidin-4-yloxy)quinazolin-2-ylamino)-N-isopropylbenzenesulfonamide]
> 5.30	> 5.30	O=C(NC1CC1)c1ccc(Nc2ncc3c(Cl)ccc(OC4CCNCC4)c3n2)cc1 [Compound 604, 4-(5-chloro-8-(piperidin-4-yloxy)quinazolin-2-ylamino)-N-cyclopropylbenzamide]
5.00 to 5.30	> 5.30	Clc1ccc(OC2CCNCC2)c2nc(Nc3ccc(N4CCOCC4)cc3)ncc12 [Compound 605, 5-chloro-N-(4-morpholinophenyl)-8-(piperidin-4-yloxy)quinazolin-2-amine]
> 5.30	> 5.30	O=S(=O)(c1ccc(Nc2ncc3c(Cl)ccc(OC4CCNCC4)c3n2)cc1)N1CCOCC1 [Compound 606, 5-chloro-N-(4-(morpholinosulfonyl)phenyl)-8-(piperidin-4-yloxy)quinazolin-2-amine]
> 5.30	> 5.30	CC(C)NS(=O)(=O)c1ccc(Nc2ncc3ccc(OC4CCNCC4)cc3n2)cc1 [Compound 607, N-isopropyl-4-(7-(piperidin-4-yloxy)quinazolin-2-ylamino)benzenesulfonamide]
5.00 to 5.30	> 5.30	O=C(c1ccc(Nc2ncc3c(Cl)ccc(OC4CNC4)c3n2)cc1)N1CCOCC1 [Compound 608, (4-(8-(azetidin-3-yloxy)-5-chloroquinazolin-2-ylamino)phenyl)(morpholino)methanone]
5.00 to 5.30	> 5.30	Clc1ccc(OC2CNC2)c2nc(Nc3ccc(N4CCOCC4)cc3)ncc12 [Compound 609, 8-(azetidin-3-yloxy)-5-chloro-N-(4-morpholinophenyl)quinazolin-2-amine]
5.00 to 5.30	> 5.30	Fc1cc(Nc2ncc3c(Cl)ccc(OC4CNC4)c3n2)ccc1N1CCOCC1 [Compound 610, 8-(azetidin-3-yloxy)-5-chloro-N-(3-fluoro-4-morpholinophenyl)quinazolin-2-amine]
> 5.30	> 5.30	Clc1cc(Nc2ncc3c(Cl)ccc(OC4CNC4)c3n2)ccc1N1CCOCC1 [Compound 611, 8-(azetidin-3-yloxy)-5-chloro-N-(3-chloro-4-morpholinophenyl)quinazolin-2-amine]
